# Test results: ChEMBL document CHEMBL4190260, “Antibiofilm potential of 16-oxo-cleroda-3, 13(14) E-diene-15 oic acid and its five new γ-amino γ-lactone derivatives against methicillin resistant Staphylococcus aureus and Streptococcus mutans” (2017)
# Calls of active or inactive are those of the source. The rule behind the calls is not given here.
# Experiments:
# Streptococcus mutans [1] = experiment: Bactericidal activity against Streptococcus mutans ATCC 25175 measured after overnight incubation; format: functional
# Staphylococcus aureus [2] = experiment: Antibacterial activity against methicillin-resistant Staphylococcus aureus ATCC 43300 assessed as time delay in bacterial growth at MIC after 10 mins; format: functional
# Staphylococcus aureus [3] = experiment: Antibacterial activity against methicillin-resistant Staphylococcus aureus ATCC 43300 assessed as time delay in bacterial growth at 2 times MIC after 10 mins; format: functional
# Staphylococcus aureus [4] = experiment: Antibacterial activity against methicillin-resistant Staphylococcus aureus ATCC 43300 assessed as delay in bacterial growth at 4 times MIC after 10 mins; format: functional, organism-based
# Streptococcus mutans [5] = experiment: Antibiofilm activity against Streptococcus mutans ATCC 25175 assessed as down-regulation of gtfB gene expression by semi-quantitative PCR analysis; format: functional, organism-based
# Streptococcus mutans [6] = experiment: Antibiofilm activity against Streptococcus mutans ATCC 25175 assessed as down-regulation of gtfC gene expression by semi-quantitative PCR analysis; format: functional, organism-based
# Streptococcus mutans [7] = experiment: Antibacterial activity against Streptococcus mutans ATCC 25175 measured after overnight incubation by two-fold serial dilution method; format: functional
# Streptococcus mutans [8] = experiment: Antibiofilm activity against Streptococcus mutans ATCC 25175 measured after overnight incubation by crystal violet-staining based assay; format: functional
# Staphylococcus aureus [9] = experiment: Antibacterial activity against methicillin-resistant Staphylococcus aureus ATCC 43300 measured after overnight incubation by two-fold serial dilution method; format: functional
# Staphylococcus aureus [10] = experiment: Bactericidal activity against methicillin-resistant Staphylococcus aureus ATCC 43300 measured after overnight incubation; format: functional
# Staphylococcus aureus [11] = experiment: Antibiofilm activity against methicillin-resistant Staphylococcus aureus ATCC 43300 measured after overnight incubation by crystal violet-staining based assay; format: functional
# Klebsiella pneumoniae = experiment: Antibacterial activity against Klebsiella pneumoniae ATCC 13882 measured after overnight incubation by two-fold serial dilution method; format: functional
# Staphylococcus aureus [12] = experiment: Bacteriostatic activity against methicillin-resistant Staphylococcus aureus ATCC 43300 assessed as log reduction in colony forming units at 12.5 to 15 ug/ml after 24 hrs; format: functional, organism-based
# Streptococcus mutans [13] = experiment: Bacteriostatic activity against Streptococcus mutans ATCC 25175 assessed as log reduction in colony forming units at 7.5 to 10 ug/ml after 24 hrs; format: functional, organism-based
# Staphylococcus aureus [14] = experiment: Antibacterial activity against methicillin-resistant Staphylococcus aureus ATCC 43300 assessed as inhibition of colony formation at 5 to 20 ug/ml measured after 24 hrs; format: functional, organism-based
# Streptococcus mutans [15] = experiment: Antibacterial activity against Streptococcus mutans ATCC 25175 measured assessed as inhibition of colony formation at 5 to 15 ug/ml after 24 hrs; format: functional, organism-based
# Staphylococcus aureus [16] = experiment: Antibacterial activity against methicillin-resistant Staphylococcus aureus ATCC 43300 assessed as reduction in bacterial viability at 5 to 20 ug/ml measured after 24 hrs by MTT assay; format: functional
# Streptococcus mutans [17] = experiment: Antibacterial activity against Streptococcus mutans ATCC 25175 measured assessed as reduction in bacterial viability at 5 to 15 ug/ml after 24 hrs by MTT assay; format: functional
# Streptococcus mutans [18] = experiment: Antibacterial activity against Streptococcus mutans ATCC 25175 assessed as log reduction in bacterial count at 10 ug/ml measured after 24 hrs relative to control; format: functional
# Staphylococcus aureus [19] = experiment: Antibacterial activity against methicillin-resistant Staphylococcus aureus ATCC 43300 assessed as log reduction in bacterial count at 5 ug/ml measured after 24 hrs; format: functional
# Streptococcus mutans [20] = experiment: Antibiofilm activity against Streptococcus mutans ATCC 25175 assessed as disruption of biofilm at 10 to 12 ug/ml by fluorescence microscopy; format: functional, organism-based
# Staphylococcus aureus [21] = experiment: Antibiofilm activity against methicillin-resistant Staphylococcus aureus ATCC 43300 assessed as disruption of biofilm at 10 to 12 ug/ml by fluorescence microscopy; format: functional, organism-based
# Staphylococcus aureus [22] = experiment: Antibiofilm activity against methicillin-resistant Staphylococcus aureus ATCC 43300 assessed as formation of oviod cells at MBIC concentration by uranyl acetate-staining based electron microscopy; format: functional, organism-based
# Staphylococcus aureus [23] = experiment: Antibiofilm activity against methicillin-resistant Staphylococcus aureus ATCC 43300 assessed as formation of broken chains at MBIC concentration by uranyl acetate-staining based electron microscopy; format: functional, organism-based
# Staphylococcus aureus [24] = experiment: Antibacterial activity against methicillin-resistant Staphylococcus aureus ATCC 43300 assessed as reduction in acid production at 0.5 times MIC and MIC measured up to 24 hrs; format: functional, organism-based
# Streptococcus mutans [25] = experiment: Antibacterial activity against Streptococcus mutans ATCC 25175 assessed as reduction in acid production at 0.5 times MIC and MIC measured up to 24 hrs; format: functional, organism-based
# Streptococcus mutans [26] = experiment: Antibacterial activity against Streptococcus mutans ATCC 25175 assessed as time delay in bacterial growth at MIC, 2 times MIC and 4 times MIC; format: functional
# Staphylococcus aureus [27] = experiment: Potency index, ratio of 6 amino penicillinic acid MIC to test compound MIC for methicillin-resistant Staphylococcus aureus ATCC 43300; format: functional
# Streptococcus mutans [28] = experiment: Antibiofilm activity against Streptococcus mutans ATCC 25175 assessed as down-regulation of luxS gene expression by semi-quantitative PCR analysis; format: functional, organism-based
# Staphylococcus aureus [29] = experiment: Antibiofilm activity against methicillin-resistant Staphylococcus aureus ATCC 43300 assessed as down-regulation of IcaA gene expression by semi-quantitative PCR analysis; format: functional, organism-based
# Staphylococcus aureus [30] = experiment: Potency index, ratio of cefixime MIC to test compound MIC for methicillin-resistant Staphylococcus aureus ATCC 43300; format: functional
# Streptococcus mutans [31] = experiment: Potency index, ratio of cefixime MIC to test compound MIC for Streptococcus mutans ATCC 25175; format: functional
# Streptococcus mutans [32] = experiment: Potency index, ratio of 6 amino penicillinic acid MIC to test compound MIC for Streptococcus mutans ATCC 25175; format: functional
# Staphylococcus aureus [33] = experiment: Potency index, ratio of gentamycin sulphate MIC to test compound MIC for methicillin-resistant Staphylococcus aureus ATCC 43300; format: functional
compound,measurement,setting,value
CC1=CCC[C@@H]2[C@@](C)(CCC3=CC(=O)OC3Nc3ccccc3)[C@H](C)CC[C@@]12C (mixture of isomers),MBC,Streptococcus mutans [1],inactive
same,Time,Staphylococcus aureus [2],1 to 2 h
same,Time,Staphylococcus aureus [3],1 to 2 h
same,Activity,Staphylococcus aureus [4],Active
same,Activity,Streptococcus mutans [5],Active
same,Activity,Streptococcus mutans [6],Active
same,MIC,Streptococcus mutans [7],15 µg/mL
same,Activity,Streptococcus mutans [8],95.88%
same,MBIC,Streptococcus mutans [8],15 µg/mL
same,MIC,Staphylococcus aureus [9],10 µg/mL
same,MBC,Staphylococcus aureus [10],inactive
same,Activity,Staphylococcus aureus [11],96.9%
same,MBIC,Staphylococcus aureus [11],10 µg/mL
same,MIC,Klebsiella pneumoniae,inactive
same,Activity,Staphylococcus aureus [12],Active
same,Activity,Streptococcus mutans [13],Active
same,Activity,Staphylococcus aureus [14],Active
same,Activity,Streptococcus mutans [15],Active
same,Activity,Staphylococcus aureus [16],<=90%
same,Activity,Streptococcus mutans [17],<=90%
same,Activity,Streptococcus mutans [18],7.5 - 8 log10CFU/ml
same,Activity,Staphylococcus aureus [19],9.5 log10CFU/ml
same,Activity,Streptococcus mutans [20],Active
same,Activity,Staphylococcus aureus [21],Active
same,Activity,Staphylococcus aureus [22],Active
same,Activity,Staphylococcus aureus [23],Active
same,Activity,Staphylococcus aureus [24],Active
same,Activity,Streptococcus mutans [25],Active
same,Time,Streptococcus mutans [26],>=8 hr
same,Ratio,Staphylococcus aureus [27],5
same,Activity,Streptococcus mutans [28],Active
same,Activity,Staphylococcus aureus [29],inactive
same,Ratio,Staphylococcus aureus [30],5
same,Ratio,Streptococcus mutans [31],5
same,Ratio,Streptococcus mutans [32],5
same,Ratio,Staphylococcus aureus [33],5
